Converted amounts (≈) assume the structure as drawn.
Columns and labels:
[1] = system: Mycobacterium tuberculosis; assay: Antimycobacterial activity against Mycobacterium tuberculosis CNCTC My 331/88 after 14 days by microdilution method; type: functional; conditions: CNCTC My 331/88, 336 h
Mycobacterium avium [2] = assay: Antimycobacterial activity against Mycobacterium avium CNCTC My 330/88 after 14 days by microdilution method; type: functional; conditions: CNCTC My 330/88, 336 h
Mycobacterium kansasii [3] = assay: Antimycobacterial activity against Mycobacterium kansasii CNCTC My 235/80 after 14 days by microdilution method; type: functional; conditions: CNCTC My 235/80, 336 h
Mycobacterium kansasii [4] = assay: Antimycobacterial activity against Mycobacterium kansasii CNCTC My 6509/96 after 14 days by microdilution method; type: functional; conditions: CNCTC My 6509/96, 336 h
[5] = system: Mycobacterium tuberculosis; assay: Antimycobacterial activity against Mycobacterium tuberculosis CNCTC My 331/88 after 21 days by microdilution method; type: functional; conditions: CNCTC My 331/88, 504 h
Mycobacterium avium [6] = assay: Antimycobacterial activity against Mycobacterium avium CNCTC My 330/88 after 21 days by microdilution method; type: functional; conditions: CNCTC My 330/88, 504 h
Mycobacterium kansasii [7] = assay: Antimycobacterial activity against Mycobacterium kansasii CNCTC My 235/80 after 21 days by microdilution method; type: functional; conditions: CNCTC My 235/80, 504 h
Mycobacterium kansasii [8] = assay: Antimycobacterial activity against Mycobacterium kansasii CNCTC My 6509/96 after 21 days by microdilution method; type: functional; conditions: CNCTC My 6509/96, 504 h
Mycobacterium kansasii [9] = assay: Antimycobacterial activity against Mycobacterium kansasii CNCTC My 235/80 after 7 days by microdilution method; type: functional; conditions: CNCTC My 235/80, 168 h
Mycobacterium kansasii [10] = assay: Antimycobacterial activity against Mycobacterium kansasii CNCTC My 6509/96 after 7 days by microdilution method; type: functional; conditions: CNCTC My 6509/96, 168 h
[11] = Cytotoxicity against human HuH7 cells assessed as cell viability after 24 hrs by MTS assay; type: cell-based; conditions: Huh-7, 24 h
HeLa [12] = assay: Cytotoxicity against human HeLa cells assessed as cell viability after 24 hrs by MTS assay; type: cell-based
[13] = Cytotoxicity against MDCK2-MDR1 cells assessed as cell viability after 24 hrs by MTS assay; type: ADME, cell-based; conditions: Canis lupus familiaris, MDCK-II
[14] = Cytotoxicity against MDCK2-MDR1 cells assessed as cell viability after 48 hrs by MTS assay; type: ADME, cell-based; conditions: Canis lupus familiaris, MDCK-II
[15] = Cytotoxicity against human HuH7 cells assessed as cell viability at 20 uM after 24 hrs by MTS assay; type: cell-based, Huh-7; conditions: read-out: Activity
[16] = Cytotoxicity against human HuH7 cells assessed as cell viability at 20 uM after 48 hrs by MTS assay; type: cell-based, Huh-7; conditions: read-out: Activity
[17] = Cytotoxicity against human HeLa cells assessed as cell viability at 20 uM after 24 hrs by MTS assay; type: cell-based; conditions: read-out: Activity
[18] = Cytotoxicity against human HeLa cells assessed as cell viability at 20 uM after 48 hrs by MTS assay; type: cell-based; conditions: read-out: Activity
[19] = Cytotoxicity against MDCK2-MDR1 cells assessed as cell viability at 20 uM after 24 hrs by MTS assay; type: ADME, cell-based, Canis lupus familiaris, MDCK-II; conditions: dog, read-out: Activity
[20] = Cytotoxicity against MDCK2-MDR1 cells assessed as cell viability at 20 uM after 48 hrs by MTS assay; type: ADME, cell-based, Canis lupus familiaris, MDCK-II; conditions: dog, read-out: Activity
Salmonella typhimurium [21] = assay: Mutagenic activity in Salmonella typhimurium TA100 assessed as reverse mutation at 30 uM by Ames test; type: toxicity, organism-based; conditions: salmonella enterica subsp. enterica serovar typhimurium
Salmonella typhimurium [22] = assay: Mutagenic activity in Salmonella typhimurium TA98 assessed as reverse mutation at 30 uM by Ames test; type: toxicity, organism-based; conditions: salmonella enterica subsp. enterica serovar typhimurium
HeLa [23] = assay: Cytotoxicity against human HeLa cells assessed as cell viability after 48 hrs by MTS assay; type: cell-based
Candida albicans = assay: Antifungal activity against Candida albicans ATCC 44859 after 24 to 48 hrs by broth microdilution method; type: functional
Candida tropicalis = assay: Antifungal activity against Candida tropicalis 156 after 24 to 48 hrs by broth microdilution method; type: functional
Pichia kudriavzevii = assay: Antifungal activity against Candida krusei E28 after 24 to 48 hrs by broth microdilution method; type: functional
Nakaseomyces glabratus = assay: Antifungal activity against Candida glabrata 20/I after 24 to 48 hrs by broth microdilution method; type: functional
Trichosporon asahii = assay: Antifungal activity against Trichosporon asahii 1188 after 24 to 48 hrs by broth microdilution method; type: functional
Aspergillus fumigatus = assay: Antifungal activity against Aspergillus fumigatus 231 after 24 to 48 hrs by broth microdilution method; type: functional
Lichtheimia corymbifera = assay: Antifungal activity against Absidia corymbifera 272 after 24 to 48 hrs by broth microdilution method; type: functional
[24] = system: Trichophyton mentagrophytes; assay: Antifungal activity against Trichophyton mentagrophytes 445 after 72 to 120 hrs by broth microdilution method; type: functional
Staphylococcus aureus [25] = assay: Antibacterial activity against Staphylococcus aureus ATCC 6538 after 24 to 48 hrs by broth microdilution method; type: functional
Staphylococcus aureus [26] = assay: Antibacterial activity against methicillin-resistant Staphylococcus aureus H 5996/08 after 24 to 48 hrs by broth microdilution method; type: functional
[27] = system: Staphylococcus epidermidis; assay: Antibacterial activity against Staphylococcus epidermidis H 6966/08 after 24 to 48 hrs by broth microdilution method; type: functional
Enterococcus faecalis = assay: Antibacterial activity against Enterococcus faecalis J 14365/08 after 24 to 48 hrs by broth microdilution method; type: functional
Escherichia coli = assay: Antibacterial activity against Escherichia coli ATCC 8739 after 24 to 48 hrs by broth microdilution method; type: functional
Klebsiella pneumoniae [28] = assay: Antibacterial activity against Klebsiella pneumoniae D 11750/08 after 24 to 48 hrs by broth microdilution method; type: functional
Klebsiella pneumoniae [29] = assay: Antibacterial activity against ESBL producing Klebsiella pneumoniae J 14368/08 after 24 to 48 hrs by broth microdilution method; type: functional
Pseudomonas aeruginosa = assay: Antibacterial activity against Pseudomonas aeruginosa ATCC 9027 after 24 to 48 hrs by broth microdilution method; type: functional

| Structure (SMILES) | MIC99 [1] [µM] | MIC99 (Mycobacterium avium [2]) [µM] | MIC99 (Mycobacterium kansasii [3]) [µM] | MIC99 (Mycobacterium kansasii [4]) [µM] | MIC99 [5] [µM] | MIC99 (Mycobacterium avium [6]) [µM] | MIC99 (Mycobacterium kansasii [7]) [µM] | MIC99 (Mycobacterium kansasii [8]) [µM] | MIC99 (Mycobacterium kansasii [9]) [µM] | MIC99 (Mycobacterium kansasii [10]) [µM] | IC50 [11] [µM] | IC50 (HeLa [12]) [µM] | IC50 [13] [µM] | viability at 24 h, 20 µM [15] [%] | viability at 48 h, 20 µM [16] [%] | viability at 24 h, 20 µM [17] [%] | viability at 48 h, 20 µM [18] [%] | viability at 24 h, 20 µM [19] [%] | viability at 48 h, 20 µM [20] [%] | Activity (Salmonella typhimurium [21]) | other results |
| --- | --- | --- | --- | --- | --- | --- | --- | --- | --- | --- | --- | --- | --- | --- | --- | --- | --- | --- | --- | --- | --- |
| O=[N+]([O-])c1cc(CSc2nnc(-c3cccc(Cl)c3)o2)cc([N+](=O)[O-])c1 | ≤ 0.03 | 16 (≈ 6.28 µg/mL) | 0.25 (≈ 0.0982 µg/mL) | 0.5 (≈ 0.196 µg/mL) | 0.06 (≈ 0.0236 µg/mL) | 16 (≈ 6.28 µg/mL) | 0.5 (≈ 0.196 µg/mL) | 1 (≈ 0.393 µg/mL) | 0.125 (≈ 0.0491 µg/mL) | 0.125 (≈ 0.0491 µg/mL) | > 20 | > 20 | > 20 | 97.9 | 45.9 | 81.9 | 34.6 | 93.3 | 57.9 | Non-toxic | IC50 [14]: > 20 µM; Activity (Salmonella typhimurium [22]): Non-toxic |
| O=[N+]([O-])c1cc(CSc2nnc(-c3cccc(Cl)c3)s2)cc([N+](=O)[O-])c1 | 0.125 (≈ 0.0511 µg/mL) | 8 (≈ 3.27 µg/mL) | 1 (≈ 0.409 µg/mL) | 0.5 (≈ 0.204 µg/mL) | 0.125 (≈ 0.0511 µg/mL) | 16 (≈ 6.54 µg/mL) | 1 (≈ 0.409 µg/mL) | 0.5 (≈ 0.204 µg/mL) | 0.25 (≈ 0.102 µg/mL) | 0.25 (≈ 0.102 µg/mL) | > 20 | > 20 | > 20 | 90.7 | 32.8 | 78.6 | 16.8 | 108 | 48.6 |  | IC50 (HeLa [23]): 2.6 µM |
| COc1cccc(-c2nnc(SCc3cc([N+](=O)[O-])cc([N+](=O)[O-])c3)o2)c1 | 0.125 (≈ 0.0485 µg/mL) | 16 (≈ 6.21 µg/mL) | 0.25 (≈ 0.0971 µg/mL) | 0.5 (≈ 0.194 µg/mL) | 0.125 (≈ 0.0485 µg/mL) | 16 (≈ 6.21 µg/mL) | 0.5 (≈ 0.194 µg/mL) | 1 (≈ 0.388 µg/mL) | 0.125 (≈ 0.0485 µg/mL) | 0.125 (≈ 0.0485 µg/mL) | > 20 | > 20 | > 20 | 89.6 | 47 | 74.2 | 16.4 | 105 | 10.5 | Non-toxic | IC50 (HeLa [23]): 4.1 µM; Activity (Salmonella typhimurium [22]): Non-toxic; MIC80 (Candida albicans): > 125 µM; MIC80 (Candida tropicalis): > 125 µM; MIC80 (Pichia kudriavzevii): > 125 µM; MIC80 (Nakaseomyces glabratus): > 125 µM; MIC80 (Trichosporon asahii): > 125 µM; MIC50 (Aspergillus fumigatus): > 125 µM; MIC50 (Lichtheimia corymbifera): > 125 µM; MIC50 [24]: > 125 µM; MIC95 (Staphylococcus aureus [25]): > 125 µM; MIC95 (Staphylococcus aureus [26]): > 125 µM; MIC95 [27]: > 125 µM; MIC95 (Enterococcus faecalis): > 125 µM; MIC95 (Escherichia coli): > 125 µM; MIC95 (Klebsiella pneumoniae [28]): > 125 µM; MIC95 (Klebsiella pneumoniae [29]): > 125 µM; MIC95 (Pseudomonas aeruginosa): > 125 µM |
| O=[N+]([O-])c1cc(CSc2nnc(-c3ccccc3)s2)cc([N+](=O)[O-])c1 | 0.06 (≈ 0.0225 µg/mL) | 8 (≈ 3 µg/mL) | 0.5 (≈ 0.187 µg/mL) | 0.5 (≈ 0.187 µg/mL) | 0.125 (≈ 0.0468 µg/mL) | 16 (≈ 5.99 µg/mL) | 1 (≈ 0.374 µg/mL) | 1 (≈ 0.374 µg/mL) | 0.25 (≈ 0.0936 µg/mL) | 0.25 (≈ 0.0936 µg/mL) | > 20 | > 20 | > 20 | 84.3 | 36.3 | 78.5 | 15.9 | 97.8 | 7.3 | Non-toxic | IC50 (HeLa [23]): 2.4 µM; IC50 [14]: 3.1 µM; Activity (Salmonella typhimurium [22]): Non-toxic |
| COc1ccc(-c2nnc(SCc3cc([N+](=O)[O-])cc([N+](=O)[O-])c3)o2)cc1 |  |  |  |  |  |  |  | 0.5 (≈ 0.194 µg/mL) |  |  | > 20 | > 20 | > 20 | 91.6 | 34.1 | 83.9 | 37.3 | 80.6 | 14.5 |  | IC50 [14]: 10.6 µM |
| O=[N+]([O-])c1ccc2c(c1)Cc1ccccc1-2 [2-NITROFLUORENE] |  |  |  |  |  |  |  |  |  |  |  |  |  |  |  |  |  |  |  |  | Activity (Salmonella typhimurium [22]): Toxic |
| O=[N+]([O-])c1ccc(CSc2nnc(-c3ccc(Cl)cc3)o2)c([N+](=O)[O-])c1 | 2 (≈ 0.786 µg/mL) | 8 (≈ 3.14 µg/mL) | 4 (≈ 1.57 µg/mL) | 8 (≈ 3.14 µg/mL) | 2 (≈ 0.786 µg/mL) | 16 (≈ 6.28 µg/mL) | 4 (≈ 1.57 µg/mL) | 8 (≈ 3.14 µg/mL) | 2 (≈ 0.786 µg/mL) | 4 (≈ 1.57 µg/mL) |  |  |  |  |  |  |  |  |  |  | MIC80 (Candida albicans): > 125 µM; MIC80 (Candida tropicalis): > 125 µM; MIC80 (Pichia kudriavzevii): > 125 µM; MIC80 (Nakaseomyces glabratus): > 125 µM; MIC80 (Trichosporon asahii): > 125 µM; MIC50 (Aspergillus fumigatus): > 125 µM; MIC50 (Lichtheimia corymbifera): > 125 µM; MIC50 [24]: > 125 µM; MIC95 (Staphylococcus aureus [25]): > 125 µM; MIC95 (Staphylococcus aureus [26]): > 125 µM; MIC95 [27]: > 125 µM; MIC95 (Enterococcus faecalis): > 125 µM; MIC95 (Escherichia coli): > 125 µM; MIC95 (Klebsiella pneumoniae [28]): > 125 µM; MIC95 (Klebsiella pneumoniae [29]): > 125 µM; MIC95 (Pseudomonas aeruginosa): > 125 µM |
| [N-]=[N+]=[N-].[Na+] [SODIUM AZIDE] |  |  |  |  |  |  |  |  |  |  |  |  |  |  |  |  |  |  |  | Toxic |  |

Reference: ChEMBL document CHEMBL3797190, “Development of 3,5-Dinitrobenzylsulfanyl-1,3,4-oxadiazoles and Thiadiazoles as Selective Antitubercular Agents Active Against Replicating and Nonreplicating Mycobacterium tuberculosis” (J Med Chem, 2016)
